In general, inhibition refers to the change of the read-out against control, counted positive when it falls.

Structures are written as SMILES. Like-named read-outs stand apart in the source and are kept apart here.

Experimental findings from US5137922A (priority 1989, dated 1992) are described below.

One assay deals with type B influenza virus. In words: microbe, parasite or virus in culture. In kind it is cell-based, B/USSA/100/83E. Conditions: unidentified influenza virus, read-out: percentage of inhibition against infection; for inhibition at 4 µg/mL: 5 min; for inhibition at 1 µg/mL: 1 h.
In assay [1] the target is hemaglutinin (HA) (Influenza A virus (A/Sichuan/2/1987(H3N2)), UniProt H9XCU1). In words: Hemaglutinin activity of type A influenza virus after treatment (agglutination of red blood cells). Type of assay: biochemical, A/Sichuan/2/87(H3N2). To be noted: FIG. 1, concentration dependence.
The test system of another assay is virus. In words: Electron microscope observation of virus suspension with EGCg. To be noted: EGCg added to suspension of the virus. An excerpt: The […] (PTA) dyeing method was utilized.
Another assay deals with type A influenza virus. In words: microbe, parasite or virus in culture. Type of assay: cell-based, A/Sichuan/2/87(H3N2).
The target in the next assay is neuraminidase (NA) (Influenza B virus (B/USSR/100/83), UniProt P16205). Type of assay: biochemical, type B influenza virus, B/USSA/100/83E. To be noted: control 11.0.

For the compound `O=C(O[C@@H]1Cc2c(O)cc(O)cc2O[C@@H]1c1cc(O)c(=O)c2c(O)c(O)cc([C@H]3Oc4cc(O)cc(O)c4C[C@H]3OC(=O)c3cc(O)c(O)c(O)c3)c2c1)c1cc(O)c(O)c(O)c1` [TF3, theaflavin digallate], in the assay on type B influenza virus, the inhibition at 4 µg/mL was found to be 100% and the inhibition at 1 µg/mL is 100%.
Consider `O=C(O[C@@H]1Cc2c(O)cc(O)cc2O[C@@H]1c1cc(O)c(O)c(O)c1)c1cc(O)c(O)c(O)c1` [EGCg, (-)epigallocatechin gallate], for which the “hemaglutinin activity inhibiting power” value in assay [1] is reported as “depend on the concentration”. Moreover, in the assay on type B influenza virus, the inhibition at 4 µg/mL was 100% and the inhibition at 1 µg/mL was 100%. Also, in the assay with virus, the “behavior of the virus under electron microscope” value is “instantaneous formation of agglutinated lumps of the viruses”. Also, the infection inhibiting power entry in the assay on type A influenza virus (FIG. 1, concentration dependence) is recorded as “depend on the concentration”. Also, the inhibition at 0.5 µg/mL with type A influenza virus (unidentified influenza virus, MDCK, 1 h, read-out: inhibition of infection) came out at 100%. For the same compound, the number of plaques result with type A influenza virus (virus treated 1 hour, 0.5 μg/ml) is listed as “zero”. Moreover, the NA activity at neuraminidase (NA) (50 μg/ml) came out at 8.00. In addition, the NA activity on neuraminidase (NA) (100 μg/ml) came out at 5.10.
